From US8623429B2, “Stabilized anthocyanin compositions” (Omnica GmbH, priority 2007, dated 2014)

Tests used:
Type in all cases: physicochemical
[1] = Example 1: stability of bilberry extract anthocyanosides, 4 hours at 37° C., pH 7.0, with/without DHLA or GSH (HPLC)
Protocol: (0.048 mmol anthocyanosides expressed as cyanidin-3-O-glucoside) were added to a 100 ml flask and filled to volume with sodium phosphate buffer (5% [w/w], pH=7.0), and stirred until dissolution was complete. A 1 ml sample was taken immediately and acidified with formic acid to pH=1.0 and analyzed by HPLC for the content of anthocyanosides (Fresh Sample). The remaining solution was kept for 4 hours at 37° C. (water bath) with stirring. Thereafter another sample (Blank sample), representing unprotected degradation, was taken and acidified.
(0.048 mmol expressed as cyanidin-3-O-glucoside) were then added and the flask was filled to volume with sodium phosphate buffer (5% [w/w], pH=7.0) and kept for 4 hours at 37° C. (water bath) with stirring.
Quantitation: External standardization based on linear regression analysis. The response factors of all anthocyanosides separated is quantitified against cyanidin-3-O-glucoside.
Test solutions from incubation experiments (with/without cells and with/without stabilizing agents) were used for analysis after stabilization of anthocyanosides with formic acid. Samples were cleared by filtration prior to injection on to HPLC-system.

[2] = Example 2: degradation over time of selected bilberry anthocyanosides at 37° C., pH 7.0, with/without GSH (HPLC); settings: pH 7.0, 37° C.; for %-residual anthocyanosides (% left): 4.30 hours
Protocol: Sample a) 60 mg bilberry extract [37% anthocyanosides] (0.048 mmol expressed as cyanidin-3-O-glucoside) were added to a 100 ml, filled to volume with sodium phosphate buffer (5% [w/w], pH=7.0) and stirred until dissolution was complete. A 1 ml sample was immediately taken and acidified with formic acid to pH=1.0 and analyzed by HPLC for the content of anthocyanosides. The remaining solution was kept at 37° C. (water bath) with stirring and additional 1 ml samples (Blank Samples), representing unprotected degradation, were sampled every 15 minutes. The samples were analyzed for selected anthocyanosides by HPLC.
Sample b) 20 mg reduced L-glutathione (0.065 mmol) were added to a 100 ml flask with 60 ml sodium phosphate buffer (5% [w/w], pH=7.0) and stirred until dissolution was complete. 60 mg bilberry extract [37% anthocyanosides] (0.048 mmol expressed as cyanidin-3-O-glucoside) were added and the flask was filled to volume with sodium phosphate buffer (5% [w/w], pH=7.0) and kept at 37° C. (water bath) with stirring. Every 15 minutes, 1 ml samples were taken and analyzed for selected anthocyanosides by HPLC.
Samples were prepared as outlined below in HPLC Analytical Method. Test stability samples were immediately acidified (to block degradation) and injected undiluted following the detailed description provided below.
HPLC Analytical Method (Materials, Instruments and Methods): […]

[3] = Example 9: stability of bilberry extract anthocyanosides, 4 hours at 37° C., pH 7.0, with/without L-cysteine
Protocol: Sample a) 60 mg bilberry extract [37% anthocyanosides] (0.048 mmol anthocyanosides expressed as cyanidin-3-O-glucoside) were added to a 100 ml flask with 60 ml sodium phosphate buffer (5% [w/w], pH=7.0), and stirred until dissolution was complete. A 1 ml sample was taken immediately and acidified with formic acid to pH=1.0 and analyzed by HPLC for the content of anthocyanosides (Fresh Sample). The remaining solution was kept for 4 hours at 37° C. (water bath) with stirring. Thereafter another sample (Blank sample), representing unprotected degradation, was taken and acidified.
Sample b) 20 mg L-cysteine […] were added to a 100 ml flask with 60 ml sodium phosphate buffer (5% [w/w], pH=7.0) and stirred until dissolution was complete. 60 mg bilberry extract [37% anthocyanosides] (0.048 mmol expressed as cyanidin-3-O-glucoside) were then added to the flask and stir to fully dissolve, then kept for 4 hours at 37° C. (water bath) with stirring.
After 4 hours, samples were taken and acidified immediately with formic acid to pH=1.0 and analyzed by HPLC for the content of anthocyanosides. Degradation is expressed as decrease in peak area of individual peaks (calculated as % left after 4 hours).
Samples were prepared as outlined above in the HPLC Analytical Method. Test stability samples were immediately acidified (to block degradation) and injected undiluted following the detailed description provided below.

[4] = Cyanidin-3-O-galactoside at pH 3.1 or 7.0 with/without DHLA, 25° C. over 3 days (HPLC)
Protocol: Cyanidn-3-O-Galactoside (0.001 molar solution) was dissolved at pH=3.1 or pH=7.0 each with/without DHLA (1.44 mmolar solution). Replicate incubations were followed at 25° C. over 3 days by HPLC.

[5] = 20 mg reduced L-glutathione, pH 7.0, 37° C., 4 hours
[6] = 30 mg dihydrolipoic acid, pH 7.0, 37° C., 4 hours
[7] = unprotected, pH 7.0, 37° C., 4 hours

**Q.** What does the source list for `OC[C@H]1O[C@@H](Oc2cc3c(O)cc(O)cc3[o+]c2-c2ccc(O)c(O)c2)[C@H](O)[C@@H](O)[C@H]1O` [Cn-3O-Gal, Cyanidin-3-O-galactoside]?
**A.** % left, GSH (4 hours) [1, 5]: 77.3%; Peak Area, GSH (4 hours) [1, 5]: 360.2; % left, DHLA (4 hours) [1, 6]: 64.5%; Peak Area, DHLA (4 hours) [1, 6]: 300.3; Peak Area, Fresh (0 hours) ([1]; bilberry extract 60 mg/100 ml sodium phosphate buffer pH 7.0, fresh sample): 465.8; % left, Blank (4 hours) [1, 7]: 41.0%; Peak Area, Blank (4 hours) [1, 7]: 191.1; Peak Area ([2]; Blank Sample, 1:15 h): 305.40; Peak Area ([2]; Blank Sample, 4:15 h): 300.50; Peak Area ([2]; Blank Sample, 4:30 h): 205.36; Peak Area ([2]; Blank sample, 0:00 h): 498.85; Peak Area ([2]; Blank sample, 0:15 h): 390.37; Peak Area ([2]; Blank sample, 0:30 h): 433.94; Peak Area ([2]; Blank sample, 0:45 h): 347.29; Peak Area ([2]; Blank sample, 1:00 h): 380.25; Peak Area ([2]; Blank sample, 1:45 h): 353.94; Peak Area ([2]; Blank sample, 2:00 h): 337.90; Peak Area ([2]; Blank sample, 2:15 h): 320.70; Peak Area ([2]; Blank sample, 2:30 h): 271.19; Peak Area ([2]; Blank sample, 2:45 h): 274.22; Peak Area ([2]; Blank sample, 3:00 h): 324.58; Peak Area ([2]; Blank sample, 3:15 h): 324.25; Peak Area ([2]; Blank sample, 3:30 h): 281.19; Peak Area ([2]; Blank sample, 4:00 h): 315.54; %-residual anthocyanosides (% left) ([2]; Blank): 41%; Peak Area ([2]; GSH Protected Sample (20 mg), 0:30 h): 470.61; Peak Area ([2]; GSH Protected Sample (20 mg), 1:30 h): 431.86; Peak Area ([2]; GSH Protected Sample (20 mg), 2:30 h): 390.23; Peak Area ([2]; GSH Protected Sample (20 mg), 3:30 h): 422.54; Peak Area ([2]; GSH Protected Sample (20 mg), 4:30 h): 420.37; Peak Area ([2]; GSH Protected Sample (20 mg), 4:45 h): 393.21; Peak Area ([2]; GSH protected sample (20 mg), 0:00 h): 508.09; Peak Area ([2]; GSH protected sample (20 mg), 0:15 h): 504.88; Peak Area ([2]; GSH protected sample (20 mg), 0:45 h): 425.89; Peak Area ([2]; GSH protected sample (20 mg), 1:00 h): 462.71; Peak Area ([2]; GSH protected sample (20 mg), 1:15 h): 452.17; Peak Area ([2]; GSH protected sample (20 mg), 1:45 h): 442.86; Peak Area ([2]; GSH protected sample (20 mg), 2:00 h): 436.19; Peak Area ([2]; GSH protected sample (20 mg), 2:15 h): 442.30; Peak Area ([2]; GSH protected sample (20 mg), 2:45 h): 422.32; Peak Area ([2]; GSH protected sample (20 mg), 3:00 h): 433.21; Peak Area ([2]; GSH protected sample (20 mg), 3:15 h): 425.54; Peak Area ([2]; GSH protected sample (20 mg), 3:45 h): 397.72; Peak Area ([2]; GSH protected sample (20 mg), 4:00 h): 446.42; Peak Area ([2]; GSH protected sample (20 mg), 4:15 h): 419.80; %-residual anthocyanosides (% left) ([2]; GSH-protected): 77%; %-residual anthocyanosides (% left) ([2]; GSH-protected, listed as cyanidin-3-O-galactose): 77%; Peak Area, Fresh solution ([3]; bilberry extract 60 mg in buffer pH 7.0, fresh sample): 465.8; % left, L-cysteine 20 mg ([3]; pH 7.0, 37° C., 4 hours): 77.3%; Peak Area, L-cysteine 20 mg ([3]; pH 7.0, 37° C., 4 hours): 360.2; % left, Blank [3, 7]: 41.0%; Peak Area, Blank [3, 7]: 191.1; recovered after 3 days ([4]; pH 3.1, 25° C., in presence of DHLA (1.44 mmolar)): 95%; recovered after 3 days ([4]; pH 3.1, 25° C., unprotected sample): 61%; recovered after 3 days ([4]; pH 7.0, 25° C., in presence of DHLA (1.44 mmolar)): about 47%; recovered after 3 days ([4]; pH 7.0, 25° C., unprotected sample): ~0%
